The target in one data set is T1, recombinant human PARP (Homo sapiens, UniProt P09874).
T1 construct: purchased Trevigen (Gaithersburg, Md.)
Briefly: PARP enzyme assay with purified recombinant human PARP, [3H]NAD. In kind it is biochemical. The settings on record: TABLE VII; 25° C., 15 minutes; read-out: Approximate IC50's.

In data set [1] the test system is ischemia and reperfusion of the heart in rabbits. To be noted: cited from earlier work.
Data set [2] relates to focal cerebral ischemia in male Long-Evans rats. Briefly: Infarct in focal cerebral ischemia: distal MCA cauterization with bilateral temporary CCA occlusion. The settings on record: for cross-sectional infarct area distribution, result in words: FIG. 1; for damaged (infarct) volume: mean±SD. Format: in vivo, rat (Long-Evans). The protocol:
(§1) Focal cerebral ischemia was produced by cauterization of the right distal MCA (middle cerebral artery) with bilateral temporary common carotid artery occlusion in male Long-Evans rats for 90 minutes. All procedures performed on the animals were approved by the University Institutional Animal Care and Use Committee of the University of Pennsylvania. A total of 42 rats (weights: 230-340 g) obtained from Charles River were used in this study. The animals fasted overnight with free access to water prior to the surgical procedure.
(§2) Two hours prior to MCA occlusion, varying amounts (control, n=14; 5 mg/kg, n=7; 10 mg/kg, n=7; 20 mg/kg, n=7; and 40 mg/kg, n=7) of the PARP inhibitor compound, 3,4-dihydro-5-[4-(1-piperidinyl)-butoxy]-1(2H)-isoquinolinone ("DPQ"), were dissolved in dimethyl sulfoxide (DMSO) using a sonicator. A volume of 1.28 ml/kg of the resulting solution was injected intraperitoneally into fourteen rats.
(§3) The rats were then anesthetized with halothane (4% for induction and 0.8%-1.2% for the surgical procedure) in a mixture of 70% nitrous oxide and 30% oxygen. The body temperature was monitored by a rectal probe and maintained at 37.5±0.5° C. with a heating blanket regulated by a homeothermic blanket control unit (Harvard Apparatus Limited, Kent, U.K.). A catheter (PE-50) was placed into the tail artery, and arterial pressure was continuously monitored and recorded on a Grass polygraph recorder (Model 7D, Grass Instruments, Quincy, Mass.). Samples for blood gas analysis (arterial pH, PaO2 and PaCO2) were also taken from the tail artery catheter and measured with a blood gas analyzer (ABL 30, Radiometer, Copenhagen, Denmark). Arterial blood samples were obtained 30 minutes after MCA occlusion.
(§4) The head of the animal was positioned in a stereotaxic frame, and a right parietal incision between the right lateral canthus and the external auditory meatus was made. Using a dental drill constantly cooled with saline, a 3 mm burr hole was prepared over the cortex supplied by the right MCA, 4 mm lateral to the sagittal suture and 5 mm caudal to the coronal suture. The dura mater and a thin inner bone layer were kept, care being taken to position the probe over a tissue area devoid of large blood vessels. The flow probe (tip diameter of 1 mm, fiber separation of 0.25 mm) was lowered to the bottom of the cranial burr hole using a micromanipulator. The probe was held stationary by a probe holder secured to the skull with dental cement. The microvascular blood flow in the right parietal cortex was continuously monitored with a laser Doppler flowmeter (FloLab, Moor, Devon, U.K., and Periflux 4001, Perimed, Stockholm, Sweden).
Focal cerebral ischemia was produced by cauterization of the distal portion of the right MCA with bilateral temporary common carotid artery (CCA) occlusion by the procedure of Chen et al., "A Model of Focal Ischemic Stroke in the Rat: Reproducible Extensive Cortical Infarction", Stroke, 17:738-43 (1986) and/or Liu et al., "Polyethylene Glycol-conjugated Superoxide Dismutase and Catalase Reduce Ischemic Brain Injury", Am. J. Physiol., 256:H589-93 (1989), both of which are hereby incorporated by reference.
Specifically, bilateral CCA's were isolated, and loops made from polyethylene (PE-10) catheter were carefully passed around the CCA's for later remote occlusion. The incision made previously for placement of the laser doppler probe was extended to allow observation of the rostral end of the zygomatic arch at the fusion point using a dental drill, and the dura mater overlying the MCA was cut. […] The burr hole was covered with a small piece of Gelform, and the wound was sutured to maintain the brain temperature within the normal or near-normal range.
After 90 minutes of occlusion, the carotid loops were released, the tail arterial catheter was removed, and all of the wounds were sutured. Gentamicin sulfate (10 mg/ml) was topically applied to the wounds to prevent infection. […]

A further data set concerns colitis in rats. To be noted: colitis induced by intraluminal trinitrobenzene sulfonic acid in 50% ethanol; cited from earlier work.
In data set [3] the test system is cell viability, glucose metabolism, and DNA synthesis. To be noted: cited from earlier work.
The next data set has as its system tumor cells. To be noted: synergy: co-treatment with an alkylating drug; cited from earlier work.
The nature of data set [4]: Arterial blood gases and mean arterial blood pressure in the focal cerebral ischemia model. To be noted: for MABP, ischemia: average during occlusion; for MABP, steady state: just prior to occlusion. In kind it is in vivo, rat (Long-Evans). The protocol: as §1, §2, §3
A "steady state" MABP was taken following completion of the surgical preparation, just prior to occlusion; an "ischemia" MABP was taken as the average MABP during occlusion.

Data set [5] has as its system right parietal cortex blood flow. Briefly: Microvascular blood flow in right parietal cortex by laser Doppler flowmetry. Format: in vivo, rat (Long-Evans). To be noted: for relative blood flow in the right parietal cortex on occlusion: control 20.8±7.7%. The protocol: as §4
Since the blood flow values obtained from the laser doppler were in arbitrary units, only percent changes from the baseline (prior to occlusion) were reported.

The subject of data set [6] is NO-mediated vascular failure in endotoxic shock. The settings on record: in vivo; cited from earlier work.

Entries after “also recorded” stand apart in the source; their conditions may differ.

T1 sequence (P09874 whole entry): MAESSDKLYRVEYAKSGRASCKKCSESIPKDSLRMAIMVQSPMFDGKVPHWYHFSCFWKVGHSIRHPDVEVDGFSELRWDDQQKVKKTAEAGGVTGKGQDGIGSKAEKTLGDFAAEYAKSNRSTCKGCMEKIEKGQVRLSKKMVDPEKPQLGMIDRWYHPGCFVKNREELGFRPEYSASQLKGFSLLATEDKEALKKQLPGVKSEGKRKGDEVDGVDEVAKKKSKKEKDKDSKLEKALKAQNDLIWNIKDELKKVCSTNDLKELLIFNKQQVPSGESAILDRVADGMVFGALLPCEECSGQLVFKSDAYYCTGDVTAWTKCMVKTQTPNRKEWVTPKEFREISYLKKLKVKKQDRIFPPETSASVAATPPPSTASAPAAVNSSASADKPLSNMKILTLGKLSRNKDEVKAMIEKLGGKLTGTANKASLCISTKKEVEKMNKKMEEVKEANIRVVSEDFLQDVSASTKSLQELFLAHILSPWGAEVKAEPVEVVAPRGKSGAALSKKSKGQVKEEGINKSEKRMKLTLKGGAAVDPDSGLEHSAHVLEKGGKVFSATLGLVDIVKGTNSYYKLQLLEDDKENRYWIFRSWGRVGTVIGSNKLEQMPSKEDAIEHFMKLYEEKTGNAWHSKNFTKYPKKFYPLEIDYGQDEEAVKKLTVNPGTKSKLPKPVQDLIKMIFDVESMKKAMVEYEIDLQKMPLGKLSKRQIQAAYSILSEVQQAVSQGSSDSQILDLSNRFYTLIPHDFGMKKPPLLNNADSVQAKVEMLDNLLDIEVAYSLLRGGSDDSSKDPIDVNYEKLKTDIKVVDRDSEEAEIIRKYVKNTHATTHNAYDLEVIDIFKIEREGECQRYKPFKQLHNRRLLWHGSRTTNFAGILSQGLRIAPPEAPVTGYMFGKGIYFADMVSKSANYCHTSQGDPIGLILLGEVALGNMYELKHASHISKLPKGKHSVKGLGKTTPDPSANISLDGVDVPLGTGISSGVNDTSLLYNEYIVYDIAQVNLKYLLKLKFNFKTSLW
Procedure for recombinant human PARP: The reaction was initiated by incubating the mixture at 25° C. After 15 minutes' incubation, the reaction was terminated by adding 500 microliters of ice cold 20% (w/v) trichloroacetic acid. The precipitate formed was transferred onto a glass fiber filter (Packard Unifilter-GF/B) and washed three times with ethanol. After the filter was dried, the radioactivity is determined by scintillation counting.

For orientation: IC50 means the midpoint of a concentration-inhibition curve. Consider `O=c1[nH]c2cc(F)ccc2c2ccccc12`, for which, at recombinant human PARP, the IC50 was about 200 nM.
Take `Oc1cccc2c(O)nccc12` [1,5-dihydroxy-isoquinoline]: in [1] (1 mg/kg), the “reduction in infarct size” value is 38-48%.
With `O=C1NCCc2c(OCCCCN3CCCCC3)cccc21` [3,4-dihydro-5-[4-(1-piperidinyl)-butoxy]-1(2H)-isoquinolinon] [3,4-dihydro-5-[4-(1-piperidinyl)-butoxy]-1(2H)-isoquinolinone], the “cross-sectional infarct area distribution, result in words” value in [2] (5 mg/kg and 20 mg/kg) was “fell approximately halfway between the control and the 10 mg/kg curves”; in data set [2] (40 mg/kg), “close to the control”. Besides, the “infarct volume, result in words” value was “less neuroprotective” in data set [2] (40 mg/kg) and “U-shaped dose-response curve” in data set [2] (overall / dose comparison).
As for `NC(=O)c1cccc(N)c1` [3-aminobenzamide], the “reduction in infarct size in the heart” value in [1] (10 mg/kg, single injection one minute before occlusion or one minute before reperfusion) was 32-42%. The “effect on colitis, result in words” value in the data set on colitis in rats is “reduced the inflammatory response and restored the morphology and the energetic status of the distal colon”. For the same compound, in data set [3], the “effect on other metabolic processes, result in words” value was “shown to affect cell viability, glucose metabolism, and DNA synthesis”.
`O=c1[nH]c2ccccc2c2ccccc12` [6(5H)-Phenanthridinone]: in the data set on tumor cells, the “effect on tumor cells, result in words” value is “reduced proliferation of tumor cells, and a marked synergistic effect when tumor cells are co-treated with this compound and an alkylating drug”.
Regarding `O=C1NCCc2c(OCCCCN3CCCCC3)cccc21` [DPQ, 3,4-dihydro-5-[4-(1-piperidinyl)-butoxy]-1(2H)-isoquinolinone], the “damaged (infarct) volume” value in data set [2] (5 mg/kg i.p. 2 h before and 2 h after MCA occlusion, p<0.001 vs control (165.2±34.0 mm^3)) was determined as 106.7±23.2 mm^3; in data set [2] (10 mg/kg i.p. 2 h before and 2 h after MCA occlusion, p<0.001 vs control (165.2±34.0 mm^3)) it was 76.4±16.8 mm^3; in [2] (20 mg/kg i.p. 2 h before and 2 h after MCA occlusion, p<0.01 vs control (165.2±34.0 mm^3)), 110.2±42.0 mm^3; in data set [2] (40 mg/kg i.p. 2 h before and 2 h after MCA occlusion, not significant vs control (165.2±34.0 mm^3)), 135.6±44.8 mm^3. The “infarct volume, result in words” value in data set [2] (40 mg/kg) is “no significant difference between the control and the 40 mg/kg-treated group”; in data set [2] (overall / dose comparison) it was “significant differences between the 5 mg/kg-treated group and the 10 mg/kg-treated group (p<0.02), and between the 10 mg/kg-treated group and the 40 mg/kg-treated group (p<0.01); also recorded: substantial reduction in infarct volume”. Besides, in data set [2] (5, 10 and 20 mg/kg), the “damaged volume compared to control, result in words” value is given as “significant decrease in the damaged volume”. The PaCO2 in data set [4] (5 mg/kg-treated group) stood at 38.0 mm Hg; in data set [4] (10 mg/kg-treated group), 39.3 mm Hg; in [4] (20 mg/kg-treated group), 41.3 mm Hg; in [4] (40 mg/kg-treated group) it was 39.5 mm Hg. The PaO2 in [4] (5 mg/kg-treated group) came to 126 ± 20 mm Hg; in data set [4] (10 mg/kg-treated group), 125 ± 16 mm Hg; in data set [4] (20 mg/kg-treated group) it was 122 ± 14 mm Hg; in data set [4] (40 mg/kg-treated group) it was 137 ± 17 mm Hg. The “arterial pH” value in [4] (5 mg/kg-treated group) came to 7.36; in data set [4] (10 mg/kg-treated group), 7.34; in data set [4] (20 mg/kg-treated group) it was 7.35; in [4] (40 mg/kg-treated group) it was 7.33. In addition, the “MABP, ischemia” value in [4] (5 mg/kg-treated group, p < 0.01 vs steady state) was found to be 91 ± 12 mm Hg; in data set [4] (10 mg/kg-treated group, p < 0.05 vs steady state) it was 90 ± 14 mm Hg; in data set [4] (20 mg/kg-treated group, p < 0.01 vs steady state), 91 ± 12 mm Hg; in data set [4] (40 mg/kg-treated group, p < 0.05 vs steady state) it was 88 ± 12 mm Hg. For the same compound, the “MABP, steady state” value in [4] (5 mg/kg-treated group) came to 78 ± 5 mm Hg; in data set [4] (10 mg/kg-treated group) it was 80 ± 9 mm Hg; in data set [4] (20 mg/kg-treated group) it was 79 ± 10 mm Hg; in data set [4] (40 mg/kg-treated group), 78 ± 4 mm Hg. In addition, the “MABP, result in words” value in data set [4] (all five groups including control) is reported as “MABP was significantly elevated following occlusion in all five groups, there were no significant differences in MABP during the occlusion period among the groups”. Further, the “arterial blood gases (PaO2, PaCO2 and pH), result in words” value in data set [4] (control and treated groups) is “within the physiological range in the control and treated groups with no significant differences in these parameters among the five groups”. Besides, the “relative blood flow in the right parietal cortex on occlusion” value in data set [5] (5 mg/kg-treated group (n=7)) is 18.7±7.4 % of the baseline; in [5] (10 mg/kg-treated group (n=7)) it was 21.4±7.7 % of the baseline; in data set [5] (40 mg/kg-treated group (n=7)) it was 19.3±11.2 % of the baseline. In addition, the “blood flow response to occlusion, result in words” value in data set [5] (control, 5, 10 and 40 mg/kg) is given as “no significant differences in the blood flow response to occlusion among the four groups”.
Regarding `NC(=O)c1ccccc1` [benzamide], in [3], the “effect on other metabolic processes, result in words” value was “shown to affect cell viability, glucose metabolism, and DNA synthesis”.
Turning to `NC(=O)c1cccnc1` [nicotinamide], the “effect on vascular failure in endotoxic shock, result in words” value in data set [6] was “protects against delayed, NO-mediated vascular failure in endotoxic shock”.

(Values after patent US6235748A, “Oxo-substituted compounds, process of making, and compositions and methods for inhibiting parp activity” (Guilford Pharmaceuticals Inc., priority 2000, dated 2001).)
